Data as given in patent publication US20260364184A1, “COMPOUND BASED ON OXOISOINDOLINYL-SUBSTITUTED TETRAHYDROPYRIMIDINE-DIONE AND USE THEREOF” (GLUETACS THERAPEUTICS (SHANGHAI) CO., LTD., priority 2023, published 2026).

Tests used:
Assay type in all cases: cell-based
CDK4 = target: T1, CDK4 (Homo sapiens, UniProt P11802+Q96SW2); test: Western blot degradation of CDK4; details: MDA-MB-231 Cell; 24 hours
T1 construct: expression of target proteins in cells; endogenous in cells
Experimental: (§1) Conventional Western blot assay was performed to evaluate the effects of the compounds of the present disclosure on the expression of target proteins in cells.
(§2) (1) Cell Seeding and Protein Harvesting: The selected cells were processed according to the cell seeding procedure and protein harvesting procedure in Table II-2.
(§3) (2) To the collected supernatant, 5×SDS sample loading buffer was added, followed by denaturation at 95 °C for 5 minutes. The denatured samples were then separated by SDS-PAGE electrophoresis on a polyacrylamide gel. Proteins were transferred to a nitrocellulose membrane (0.45 μm NC membrane), blocked with blocking buffer at room temperature for 1 hour, and subjected to antibody incubation and development procedures according to the antibody manufacturer's instructions (Cell Signaling Technology).
(§4) Half-Maximal Degradation Concentration value (the drug concentration required for degrading proteins by 50%, abbreviated as DC50) reads method: comparing the grayscale values of Western blot bands from drug-treated samples with those from blank DMSO-treated controls, and identifying the drug concentration range at which the grayscale value is half that of the DMSO-treated control bands.
(§5) DC50 values can be calculated using ImageJ software to measure grayscale values of Western blot bands from drug-treated samples. The concentration-response curve is fitted to estimate the drug concentration corresponding to half the grayscale value.
(§6) Target protein remaining (%) refers to the percentage of target protein remaining in cells after treatment with protein degrader compounds.
(§7) Calculation method for target protein remaining (%): Use ImageJ software to measure grayscale values of Western blot bands from drug (protein degrader)-treated samples. The grayscale value of drug-treated bands is divided by that of internal control protein bands, and the resulting quotient is normalized to obtain the relative percentage of remaining target protein after protein degrader treatment.
(§8) Target protein degradation rate (%)=1−target protein remaining (%).

[1] = test system: Human myeloid monocytic leukemia cell line (MV-4-11); test: Inhibition of MV-4-11 cell proliferation (CellTiter luminescent viability); details: for IC50: Table IE1, CDK4/6 inhibitor-based, MV-4-11, 96 hours, read-out: Inhibitory activity (IC50, nM) on tumor cell proliferation, MV-4-11; for inhibition at 0.01 µM / inhibition at 0.5 µM: Homo sapiens, MV4-11, Table IE3, CDK4/6 inhibitor-based, 96 hours; for inhibition at 0.01 µM: MV-4-11, 10 nM, read-out: Inhibition Rate at 10 nM (%); for inhibition at 0.5 µM: MV-4-11, 500 nM, read-out: Inhibition Rate at 500 nM (%)
Method in brief: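 IC50 is fitted from luminescent viability (CellTiter-Meiluncell) curves. Nine-point, 5-fold dilution series (top stock 2000 μM) are added at 0.5 μL per 100 μL medium to cells plated the day before, with growth at 37 °C and 5% CO2.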

[2] = test system: Human acute lymphocytic leukemia T lymphocytes cell line (CCRF-CEM); test: Inhibition of CCRF-CEM cell proliferation (CellTiter luminescent viability); details: Table IE1, CDK4/6 inhibitor-based, 96 hours, read-out: Inhibitory activity (IC50, nM) on tumor cell proliferation, CCRF-CEM
CDK6 = target: T2, CDK6 (Homo sapiens, UniProt Q00534+Q96SW2); test: Western blot degradation of CDK6; details: MDA-MB-231 Cell; 24 hours
T2 construct: expression of target proteins in cells; endogenous in cells
Experimental: as §1, §2, §3, §4, §5, §6, §7, §8

[3] = test system: Human Acute T Lymphoblastic Leukemia Cells (Molt-4); test: Inhibition of Molt-4 cell proliferation (CellTiter luminescent viability); details: Table IE1, CDK4/6 inhibitor-based; Molt-4, 96 hours; read-out: Inhibitory activity (IC50, nM) on tumor cell proliferation, Molt-4
[4] = test system: Human large cell immunoblastic lymphoma cell line SR; test: Inhibition of SR cell proliferation (CellTiter luminescent viability); details: Table IE1, CDK4/6 inhibitor-based, 96 hours, read-out: Inhibitory activity (IC50, nM) on tumor cell proliferation, SR
Experimental: The tumor cells used herein were cultured in a cell culture medium listed in table 3 at 37 °C in an incubator with 5% CO2. Prior to experimentation, all cell lines used were correctly identified by STR profiling, and tested negative for mycoplasma contamination using a mycoplasma detection kit through routine screenings.
The IC50 values of the compounds of the present disclosure (including the compounds in Table 1, Table 2, and Examples 1-468) were determined using the CellTiter-Meiluncell Luminescent Cell Viability Assay Kit from Dalian Meilun Biotech Co., Ltd. The detailed procedure is as follows: Tumor cells were seeded in 96-well cell culture plates at the densities specified in Table 4. On the following day, the test compounds of the present disclosure were subjected to serial dilution. The dilution can be performed according to one of the following two methods: • (1) The first dilution method: The test compounds of the present disclosure (including the compounds in Table 1, Table 2, and Examples 1-468) were subjected to 5-fold serial dilutions starting from a highest concentration of 2000 μM, resulting in a total of 9 concentrations from high to low (2000, 400, 80, 16, 3.2, 0.64, 0.128, 0.0256, 0.00512 μM). Subsequently, 0.5 μL of the test compound dilution was transferred into the 96-well plate containing the cells, with each well containing 100 μL of cell culture medium. […] Into the 96-well plate, the diluted test compounds and corresponding detection reagents were added, resulting in final test compound concentrations of 500 nM and 10 nM, respectively. The experimental procedure is described below using the diluted 2 μM test compound as an example.
0.5 μL of the aforementioned diluted compound of the present disclosure (including the compounds in Table 1, Table 2, and Examples 1-468) was added to the seeded cells in 100 μL of medium, yielding a final test compound concentration of 10 nM. After the cells were treated with the compounds of the present disclosure for a specified period, the cell viability assay reagent was added to the culture medium according to the kit's instructions to determine cell viability. […] All controls were treated using the same procedure as the compounds of the present disclosure. The growth inhibition curves for the compounds of the present disclosure were plotted using Prism GraphPad software, and the IC50 values were calculated therefrom.

[5] = test system: Human lung cancer cell line (H292); test: Inhibition of H292 cell proliferation (CellTiter luminescent viability); details: NCI-H292, Table IE2, CDK4/6 inhibitor-based, 96 hours; for inhibition at 0.01 µM: H292, 10 nM, read-out: Inhibition Rate at 10 nM (%); for inhibition at 0.5 µM: H292, 500 nM, read-out: Inhibition Rate at 500 nM (%)

T1 sequence (P11802 whole entry): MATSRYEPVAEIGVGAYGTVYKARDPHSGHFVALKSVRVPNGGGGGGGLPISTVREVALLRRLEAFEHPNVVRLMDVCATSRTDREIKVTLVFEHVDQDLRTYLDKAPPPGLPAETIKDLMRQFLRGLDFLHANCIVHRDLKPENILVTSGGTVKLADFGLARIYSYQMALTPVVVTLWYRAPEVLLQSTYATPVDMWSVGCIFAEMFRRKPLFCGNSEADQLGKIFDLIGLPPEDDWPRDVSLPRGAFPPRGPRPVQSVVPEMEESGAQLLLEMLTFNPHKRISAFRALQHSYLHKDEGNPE
T1 sequence (Q96SW2 whole entry): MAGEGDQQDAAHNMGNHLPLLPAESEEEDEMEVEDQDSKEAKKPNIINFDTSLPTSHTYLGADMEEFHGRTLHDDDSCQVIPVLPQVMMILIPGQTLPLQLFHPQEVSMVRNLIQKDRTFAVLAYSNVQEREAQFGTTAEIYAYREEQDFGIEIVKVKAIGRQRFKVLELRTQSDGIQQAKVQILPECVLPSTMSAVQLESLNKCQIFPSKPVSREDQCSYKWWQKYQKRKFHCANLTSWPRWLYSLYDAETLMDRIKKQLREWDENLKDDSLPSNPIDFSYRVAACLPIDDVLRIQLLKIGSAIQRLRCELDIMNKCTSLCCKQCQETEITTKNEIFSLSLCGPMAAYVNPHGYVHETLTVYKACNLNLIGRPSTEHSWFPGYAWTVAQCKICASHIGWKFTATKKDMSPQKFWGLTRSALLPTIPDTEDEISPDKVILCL
T1 sequence (Q16531 whole entry partner): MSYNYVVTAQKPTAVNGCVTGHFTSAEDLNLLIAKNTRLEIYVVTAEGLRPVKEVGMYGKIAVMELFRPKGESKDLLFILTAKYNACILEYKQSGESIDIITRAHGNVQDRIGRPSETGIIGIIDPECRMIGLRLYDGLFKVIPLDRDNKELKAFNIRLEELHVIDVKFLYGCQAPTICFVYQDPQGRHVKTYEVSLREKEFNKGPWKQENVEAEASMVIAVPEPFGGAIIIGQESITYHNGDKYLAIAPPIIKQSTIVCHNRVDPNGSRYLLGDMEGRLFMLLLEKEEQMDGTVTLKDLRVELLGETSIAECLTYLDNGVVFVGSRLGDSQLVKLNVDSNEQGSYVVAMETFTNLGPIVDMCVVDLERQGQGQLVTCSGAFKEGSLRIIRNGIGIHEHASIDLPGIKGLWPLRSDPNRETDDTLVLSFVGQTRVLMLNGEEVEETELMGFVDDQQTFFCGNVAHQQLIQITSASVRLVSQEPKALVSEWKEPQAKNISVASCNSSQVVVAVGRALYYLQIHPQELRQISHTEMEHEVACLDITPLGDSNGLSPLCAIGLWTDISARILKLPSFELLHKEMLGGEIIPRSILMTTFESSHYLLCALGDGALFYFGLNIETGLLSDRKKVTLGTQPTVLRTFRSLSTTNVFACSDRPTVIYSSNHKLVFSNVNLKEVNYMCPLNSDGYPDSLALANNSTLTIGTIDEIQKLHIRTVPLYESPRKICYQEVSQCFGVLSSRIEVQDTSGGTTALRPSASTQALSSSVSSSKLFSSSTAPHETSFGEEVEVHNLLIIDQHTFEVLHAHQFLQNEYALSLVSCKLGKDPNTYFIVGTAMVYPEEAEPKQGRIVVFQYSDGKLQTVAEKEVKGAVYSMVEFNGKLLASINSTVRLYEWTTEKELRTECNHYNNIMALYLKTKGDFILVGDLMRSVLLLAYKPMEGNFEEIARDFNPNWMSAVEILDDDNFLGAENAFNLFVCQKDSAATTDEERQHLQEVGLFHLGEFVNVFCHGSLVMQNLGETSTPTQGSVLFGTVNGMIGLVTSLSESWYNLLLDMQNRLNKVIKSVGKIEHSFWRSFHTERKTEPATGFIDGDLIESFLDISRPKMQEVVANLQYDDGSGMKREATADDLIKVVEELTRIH
T2 sequence (Q00534 whole entry): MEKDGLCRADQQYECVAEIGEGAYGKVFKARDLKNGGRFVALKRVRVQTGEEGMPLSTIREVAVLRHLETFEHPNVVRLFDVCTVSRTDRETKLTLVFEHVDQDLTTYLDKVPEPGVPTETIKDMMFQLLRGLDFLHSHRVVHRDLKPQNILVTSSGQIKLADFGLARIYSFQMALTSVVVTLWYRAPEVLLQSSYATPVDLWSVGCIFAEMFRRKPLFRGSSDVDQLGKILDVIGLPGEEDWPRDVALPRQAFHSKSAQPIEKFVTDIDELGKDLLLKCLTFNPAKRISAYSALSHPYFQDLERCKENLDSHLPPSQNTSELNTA
T2 sequence (Q96SW2 whole entry): as the sequence (Q96SW2 whole entry) above
T2 sequence (Q16531 whole entry partner): as the sequence (Q16531 whole entry partner) above

SMILES	Degradation of substrate protein CDK4 (substrate protein remaining %) (CDK4)	IC50 [1]	IC50 [2]	Degradation of substrate protein CDK6 (substrate protein remaining %) (CDK6)	IC50 [3]	IC50 [4]	inhibition at 0.01 µM [5]	inhibition at 0.5 µM [5]	inhibition at 0.01 µM [1]	inhibition at 0.5 µM [1]
Cc1nc2c(F)cc(-c3nc(Nc4ccc(N5CCC(N(C)CC6CCN(c7ccc8c(c7)C(=O)N(N7CCC(=O)NC7=O)C8=O)CC6)CC5)cn4)ncc3F)cc2n1C(C)C [GT-06733, 2-(2,4-dioxotetrahydropyrimidin-1(2H)-yl)-5-(4-(((1-(6-((5-fluoro-4-(4-fluoro-1-isopropyl-2-methyl-1H-benzo[d]imidazol-6-yl)pyrimidin-2-yl)amino)pyridin-3-yl)piperidin-4-yl)(methyl)amino)methyl)piperidin-1-yl)isoindoline-1,3-dione]	A (0%≤substrate protein remaining %≤80%)	10 to 50 nM	100 to 300 nM	A (0%≤substrate protein remaining %≤80%)	100 to 300 nM	100 to 300 nM				
CN(C)C(=O)c1cc2cnc(Nc3ccc(N4CCC(CN5CCN(C6CCN(c7ccc8c(c7)C(=O)N(N7CCC(=O)NC7=O)C8=O)CC6)CC5)CC4)cn3)nc2n1C1CCCC1 [GT-05205, 7-cyclopentyl-2-((5-(4-((4-(1-(2-(2,4-dioxotetrahydropyrimidin-1(2H)-yl)-1,3-dioxoisoindolin-5-yl)piperidin-4-yl)piperazin-1-yl)methyl)piperidin-1-yl)pyridin-2-yl)amino)-N,N-dimethyl-7H-pyrrolo[2,3-d]pyrimidine-6-carboxamide]	B (80%<substrate protein remaining %≤100%)			A (0%≤substrate protein remaining %≤80%)			35 to 40%	35 to 40%	20 to 25%	40 to 60%
Cc1nc2c(F)cc(-c3nc(Nc4ccc(N5CCC(N6CCN(Cc7ccc8c(c7)C(=O)N(N7CCC(=O)NC7=O)C8=O)CC6)CC5)cn4)ncc3F)cc2n1C(C)C [GT-06737, 2-(2,4-dioxotetrahydropyrimidin-1(2H)-yl)-5-((4-(1-(6-((5-fluoro-4-(4-fluoro-1-isopropyl-2-methyl-1H-benzo[d]imidazol-6-yl)pyrimidin-2-yl)amino)pyridin-3-yl)piperidin-4-yl)piperazin-1-yl)methyl)isoindoline-1,3-dione]	B (80%<substrate protein remaining %≤100%)	300 to 400 nM		A (0%≤substrate protein remaining %≤80%)		100 to 300 nM				
CN(C)C(=O)c1cc2cnc(Nc3ccc(N4CCC(N(C)CC5CCN(c6ccc7c(c6)C(=O)N(N6CCC(=O)NC6=O)C7=O)CC5)CC4)cn3)nc2n1C1CCCC1 [GT-06489, 7-cyclopentyl-2-((5-(4-(((1-(2-(2,4-dioxotetrahydropyrimidin-1(2H)-yl)-1,3-dioxoisoindolin-5-yl)piperidin-4-yl)methyl)(methyl)amino)piperidin-1-yl)pyridin-2-yl)amino)-N,N-dimethyl-7H-pyrrolo[2,3-d]pyrimidine-6-carboxamide]	A (0%≤substrate protein remaining %≤80%)			A (0%≤substrate protein remaining %≤80%)			30 to 35%	40 to 60%	25 to 30%	40 to 60%
CN(C)C(=O)c1cc2cnc(Nc3ccc(N4CCC(CN5C6CCC5CN(c5ccc7c(c5)C(=O)N(N5CCC(=O)NC5=O)C7=O)C6)CC4)cn3)nc2n1C1CCCC1 [GT-05812, 7-cyclopentyl-2-((5-(4-((3-(2-(2,4-dioxotetrahydropyrimidin-1(2H)-yl)-1,3-dioxoisoindolin-5-yl)-3,8-diazabicyclo[3.2.1]octan-8-yl)methyl)piperidin-1-yl)pyridin-2-yl)amino)-N,N-dimethyl-7H-pyrrolo[2,3-d]pyrimidine-6-carboxamide]	B (80%<substrate protein remaining %≤100%)			A (0%≤substrate protein remaining %≤80%)			35 to 40%	30 to 35%	15 to 20%	40 to 60%
CC(=O)c1c(C)c2cnc(Nc3ccc(N4CCN(Cc5ccc6c(c5)CN(N5CCC(=O)NC5=O)C6=O)CC4)cn3)nc2n(C2CCCC2)c1=O [GT-06573, 1-(5-((4-(6-((6-acetyl-8-cyclopentyl-5-methyl-7-oxo-7,8-dihydropyrido[2,3-d]pyrimidin-2-yl)amino)pyridin-3-yl)piperazin-1-yl)methyl)-1-oxoisoindolin-2-yl)dihydropyrimidine-2,4 (1H,3H)-dione]	B (80%<substrate protein remaining %≤100%)			A (0%≤substrate protein remaining %≤80%)			30 to 35%	40 to 60%	40 to 60%	60 to 80%
CN(C)C(=O)c1cc2cnc(Nc3ccc(N4CCN(CC5CCN(c6cccc7c6C(=O)N(N6CCC(=O)NC6=O)C7=O)CC5)CC4)cn3)nc2n1C1CCCC1 [GT-06338, 7-cyclopentyl-2-((5-(4-((1-(2-(2,4-dioxotetrahydropyrimidin-1(2H)-yl)-1,3-dioxoisoindolin-4-yl)piperidin-4-yl)methyl)piperazin-1-yl)pyridin-2-yl)amino)-N,N-dimethyl-7H-pyrrolo[2,3-d]pyrimidine-6-carboxamide]	A (0%≤substrate protein remaining %≤80%)			A (0%≤substrate protein remaining %≤80%)			30 to 35%	40 to 60%		
